Key:
[1] = target: T1, Phosphatidylinositol 3-kinase C2 domain-containing subunit gamma (Homo sapiens) (UniProt O75747); assay: Selectivity interaction (KinomeScan (DiscoverX)) EUB0001049a PIK3C2G; settings: at 1 µM
T1 sequence (whole entry): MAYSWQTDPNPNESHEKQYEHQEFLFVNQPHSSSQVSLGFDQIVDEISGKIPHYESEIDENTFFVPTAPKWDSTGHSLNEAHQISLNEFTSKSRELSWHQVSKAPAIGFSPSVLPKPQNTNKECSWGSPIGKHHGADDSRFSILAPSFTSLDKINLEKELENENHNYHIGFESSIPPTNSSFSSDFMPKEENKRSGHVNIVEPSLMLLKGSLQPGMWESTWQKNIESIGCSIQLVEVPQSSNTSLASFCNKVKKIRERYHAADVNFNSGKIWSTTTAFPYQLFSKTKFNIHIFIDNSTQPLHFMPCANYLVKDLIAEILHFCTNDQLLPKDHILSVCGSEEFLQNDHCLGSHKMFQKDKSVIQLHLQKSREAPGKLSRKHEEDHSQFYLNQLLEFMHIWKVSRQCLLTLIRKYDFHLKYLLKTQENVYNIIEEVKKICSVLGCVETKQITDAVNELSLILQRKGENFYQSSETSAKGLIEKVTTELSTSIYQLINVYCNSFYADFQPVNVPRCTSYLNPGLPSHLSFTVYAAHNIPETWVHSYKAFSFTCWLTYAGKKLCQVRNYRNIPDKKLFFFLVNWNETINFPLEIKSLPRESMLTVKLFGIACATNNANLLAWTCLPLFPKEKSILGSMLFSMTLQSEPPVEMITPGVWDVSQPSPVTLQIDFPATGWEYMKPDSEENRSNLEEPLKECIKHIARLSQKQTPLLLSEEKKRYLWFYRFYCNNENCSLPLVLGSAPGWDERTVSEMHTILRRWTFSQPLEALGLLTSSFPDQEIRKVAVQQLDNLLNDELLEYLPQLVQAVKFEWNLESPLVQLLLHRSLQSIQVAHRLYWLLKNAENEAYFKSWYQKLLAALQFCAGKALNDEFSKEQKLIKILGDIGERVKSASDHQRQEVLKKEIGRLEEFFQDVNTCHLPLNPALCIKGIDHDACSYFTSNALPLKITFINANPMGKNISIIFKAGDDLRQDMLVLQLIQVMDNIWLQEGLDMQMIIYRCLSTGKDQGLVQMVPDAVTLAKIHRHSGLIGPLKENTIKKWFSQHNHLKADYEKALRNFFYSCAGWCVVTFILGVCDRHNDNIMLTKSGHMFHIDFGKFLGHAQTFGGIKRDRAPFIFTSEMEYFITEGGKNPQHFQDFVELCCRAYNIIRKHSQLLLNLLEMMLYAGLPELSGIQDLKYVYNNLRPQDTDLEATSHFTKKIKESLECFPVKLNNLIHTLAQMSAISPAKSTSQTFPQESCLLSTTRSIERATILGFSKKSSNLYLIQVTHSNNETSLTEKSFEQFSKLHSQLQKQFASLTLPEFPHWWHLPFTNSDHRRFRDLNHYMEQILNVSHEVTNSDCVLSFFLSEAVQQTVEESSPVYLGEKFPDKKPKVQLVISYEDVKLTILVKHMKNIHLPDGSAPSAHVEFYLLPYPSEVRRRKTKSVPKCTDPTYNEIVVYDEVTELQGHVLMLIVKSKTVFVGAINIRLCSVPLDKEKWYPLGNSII

[2] = target: BMP-2-inducible protein kinase (Homo sapiens) (UniProt Q9NSY1); assay: Selectivity interaction (KinomeScan (DiscoverX)) EUB0000666a BMP2K; settings: at 10 µM
Chain of BMP-2-inducible protein kinase (Homo sapiens) (Q9NSY1 whole entry, looked up): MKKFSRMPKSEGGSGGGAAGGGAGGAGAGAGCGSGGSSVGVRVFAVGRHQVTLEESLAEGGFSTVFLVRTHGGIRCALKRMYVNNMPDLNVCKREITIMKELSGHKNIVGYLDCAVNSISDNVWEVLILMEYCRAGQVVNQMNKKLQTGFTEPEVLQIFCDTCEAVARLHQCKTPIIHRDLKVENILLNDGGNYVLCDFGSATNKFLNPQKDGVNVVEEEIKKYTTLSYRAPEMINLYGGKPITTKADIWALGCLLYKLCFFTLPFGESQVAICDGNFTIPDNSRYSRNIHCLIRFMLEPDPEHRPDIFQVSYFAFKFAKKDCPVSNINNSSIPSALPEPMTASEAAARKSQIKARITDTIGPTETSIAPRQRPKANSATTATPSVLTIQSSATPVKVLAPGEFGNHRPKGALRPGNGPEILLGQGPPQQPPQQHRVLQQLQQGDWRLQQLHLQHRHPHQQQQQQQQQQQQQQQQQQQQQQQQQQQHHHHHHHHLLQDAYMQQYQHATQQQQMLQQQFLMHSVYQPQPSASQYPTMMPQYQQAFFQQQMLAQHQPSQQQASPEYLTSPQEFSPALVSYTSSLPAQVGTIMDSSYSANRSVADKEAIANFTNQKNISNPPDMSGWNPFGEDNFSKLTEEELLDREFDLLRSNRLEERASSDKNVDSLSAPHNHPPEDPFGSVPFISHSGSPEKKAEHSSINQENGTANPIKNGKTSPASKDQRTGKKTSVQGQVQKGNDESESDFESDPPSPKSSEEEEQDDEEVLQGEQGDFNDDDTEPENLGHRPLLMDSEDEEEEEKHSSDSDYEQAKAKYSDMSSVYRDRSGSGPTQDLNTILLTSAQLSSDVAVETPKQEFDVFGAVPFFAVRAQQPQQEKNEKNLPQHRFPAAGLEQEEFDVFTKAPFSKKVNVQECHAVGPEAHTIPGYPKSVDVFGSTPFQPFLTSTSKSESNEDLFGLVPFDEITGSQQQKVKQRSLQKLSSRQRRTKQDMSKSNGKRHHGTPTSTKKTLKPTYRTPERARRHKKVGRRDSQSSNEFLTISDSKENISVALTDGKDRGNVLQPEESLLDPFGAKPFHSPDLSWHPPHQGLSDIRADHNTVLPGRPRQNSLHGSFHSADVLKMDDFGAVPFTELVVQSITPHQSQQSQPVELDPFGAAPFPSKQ

[3] = target: Receptor tyrosine-protein kinase erbB-2 (Homo sapiens, UniProt P04626); assay: Selectivity interaction (KinomeScan (DiscoverX)) EUB0000229b ERBB2; settings: at 10 µM
Chain of Receptor tyrosine-protein kinase erbB-2 (P04626 whole entry): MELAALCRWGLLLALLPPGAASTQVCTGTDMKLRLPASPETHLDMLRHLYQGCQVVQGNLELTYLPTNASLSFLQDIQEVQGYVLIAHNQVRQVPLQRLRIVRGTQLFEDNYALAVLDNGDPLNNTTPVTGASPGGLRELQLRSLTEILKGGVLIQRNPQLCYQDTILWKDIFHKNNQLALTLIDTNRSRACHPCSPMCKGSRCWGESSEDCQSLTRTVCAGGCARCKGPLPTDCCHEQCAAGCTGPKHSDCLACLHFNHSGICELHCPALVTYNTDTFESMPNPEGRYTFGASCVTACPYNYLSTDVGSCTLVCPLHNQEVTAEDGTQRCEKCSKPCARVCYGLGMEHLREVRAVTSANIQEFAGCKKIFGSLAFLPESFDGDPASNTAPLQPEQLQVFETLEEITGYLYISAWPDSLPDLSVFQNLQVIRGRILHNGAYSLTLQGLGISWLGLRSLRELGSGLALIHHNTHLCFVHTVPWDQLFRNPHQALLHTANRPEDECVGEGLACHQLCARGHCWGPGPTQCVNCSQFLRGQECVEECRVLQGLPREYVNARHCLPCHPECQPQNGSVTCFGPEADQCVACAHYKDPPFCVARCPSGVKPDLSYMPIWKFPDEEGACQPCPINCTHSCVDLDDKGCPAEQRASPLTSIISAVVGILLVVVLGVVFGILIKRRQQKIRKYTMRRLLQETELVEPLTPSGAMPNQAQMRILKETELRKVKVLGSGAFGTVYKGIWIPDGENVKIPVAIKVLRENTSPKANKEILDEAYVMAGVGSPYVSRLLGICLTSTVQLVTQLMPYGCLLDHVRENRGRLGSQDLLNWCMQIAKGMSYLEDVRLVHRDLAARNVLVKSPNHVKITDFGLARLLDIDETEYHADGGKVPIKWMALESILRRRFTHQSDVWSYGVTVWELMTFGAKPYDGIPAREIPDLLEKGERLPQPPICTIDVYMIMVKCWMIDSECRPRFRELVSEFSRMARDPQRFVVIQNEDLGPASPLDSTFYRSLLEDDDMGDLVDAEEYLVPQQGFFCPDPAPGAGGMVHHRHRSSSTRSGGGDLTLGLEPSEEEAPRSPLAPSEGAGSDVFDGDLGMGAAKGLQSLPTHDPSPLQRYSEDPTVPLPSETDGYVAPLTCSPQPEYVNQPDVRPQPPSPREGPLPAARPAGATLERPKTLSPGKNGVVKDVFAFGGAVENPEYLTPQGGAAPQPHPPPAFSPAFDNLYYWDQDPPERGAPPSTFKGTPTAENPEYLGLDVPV

[4] = target: Tyrosine-protein kinase JAK1 (Homo sapiens, UniProt P23458); assay: Selectivity interaction (ActivX KiNativ screen (kinase selectivity in THP-1 cell lysates)) EUB0000639a JAK1; assay type: subcellular; settings: lysate, at 5 µM
Chain of Tyrosine-protein kinase JAK1 (P23458 whole entry): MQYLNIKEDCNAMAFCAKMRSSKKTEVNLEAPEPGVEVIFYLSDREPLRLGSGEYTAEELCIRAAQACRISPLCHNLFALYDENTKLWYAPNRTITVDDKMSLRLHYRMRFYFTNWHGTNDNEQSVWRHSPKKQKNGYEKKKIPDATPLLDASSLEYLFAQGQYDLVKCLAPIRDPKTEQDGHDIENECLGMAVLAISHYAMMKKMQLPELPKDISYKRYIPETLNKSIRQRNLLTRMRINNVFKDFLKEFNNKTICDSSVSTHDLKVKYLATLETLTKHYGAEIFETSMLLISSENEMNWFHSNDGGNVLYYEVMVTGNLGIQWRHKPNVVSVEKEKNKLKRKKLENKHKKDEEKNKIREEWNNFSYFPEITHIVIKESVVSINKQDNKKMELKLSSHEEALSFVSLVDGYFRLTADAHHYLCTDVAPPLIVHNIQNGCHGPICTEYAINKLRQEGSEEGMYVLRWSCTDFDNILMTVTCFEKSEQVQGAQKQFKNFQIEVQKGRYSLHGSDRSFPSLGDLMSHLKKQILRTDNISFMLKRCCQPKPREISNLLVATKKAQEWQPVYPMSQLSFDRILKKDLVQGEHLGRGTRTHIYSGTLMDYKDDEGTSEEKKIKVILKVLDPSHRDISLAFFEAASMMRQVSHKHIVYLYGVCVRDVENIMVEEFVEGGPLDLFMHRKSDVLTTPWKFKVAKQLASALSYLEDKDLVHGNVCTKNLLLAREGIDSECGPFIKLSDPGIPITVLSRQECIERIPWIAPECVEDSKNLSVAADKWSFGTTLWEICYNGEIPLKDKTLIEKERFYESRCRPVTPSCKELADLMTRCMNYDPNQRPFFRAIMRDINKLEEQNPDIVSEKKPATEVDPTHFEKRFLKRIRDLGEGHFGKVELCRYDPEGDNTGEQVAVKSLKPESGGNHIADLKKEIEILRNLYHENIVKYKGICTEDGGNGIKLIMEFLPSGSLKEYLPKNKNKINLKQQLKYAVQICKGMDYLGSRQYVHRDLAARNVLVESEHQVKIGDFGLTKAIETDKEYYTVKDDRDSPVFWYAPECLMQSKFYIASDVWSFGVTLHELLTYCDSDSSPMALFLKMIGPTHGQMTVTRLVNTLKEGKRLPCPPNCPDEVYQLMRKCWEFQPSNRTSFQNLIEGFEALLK

[5] = target: T2, Serine/threonine-protein kinase 3 (Homo sapiens) (UniProt Q13188); assay: Selectivity interaction (Kinase panel (DSF assay)) EUB0001489b STK3
T2 sequence (whole entry): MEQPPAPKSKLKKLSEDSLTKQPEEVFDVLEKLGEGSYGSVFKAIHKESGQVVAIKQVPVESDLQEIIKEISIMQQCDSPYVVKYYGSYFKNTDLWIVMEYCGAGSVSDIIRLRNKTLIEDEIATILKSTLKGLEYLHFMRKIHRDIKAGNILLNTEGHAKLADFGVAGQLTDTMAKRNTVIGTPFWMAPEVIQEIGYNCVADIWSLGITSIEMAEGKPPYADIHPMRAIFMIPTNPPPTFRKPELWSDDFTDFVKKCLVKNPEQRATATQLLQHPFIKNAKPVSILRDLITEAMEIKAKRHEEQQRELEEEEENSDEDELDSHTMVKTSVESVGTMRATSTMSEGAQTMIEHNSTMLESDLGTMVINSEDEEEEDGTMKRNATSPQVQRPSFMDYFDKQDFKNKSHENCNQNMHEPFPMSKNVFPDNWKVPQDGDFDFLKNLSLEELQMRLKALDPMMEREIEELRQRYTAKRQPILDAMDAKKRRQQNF

[6] = target: T3, Serine/threonine-protein kinase 17B (Homo sapiens) (UniProt O94768); assay: Selectivity interaction (KinomeScan (DiscoverX)) EUB0000045b STK17B
T3 sequence (whole entry): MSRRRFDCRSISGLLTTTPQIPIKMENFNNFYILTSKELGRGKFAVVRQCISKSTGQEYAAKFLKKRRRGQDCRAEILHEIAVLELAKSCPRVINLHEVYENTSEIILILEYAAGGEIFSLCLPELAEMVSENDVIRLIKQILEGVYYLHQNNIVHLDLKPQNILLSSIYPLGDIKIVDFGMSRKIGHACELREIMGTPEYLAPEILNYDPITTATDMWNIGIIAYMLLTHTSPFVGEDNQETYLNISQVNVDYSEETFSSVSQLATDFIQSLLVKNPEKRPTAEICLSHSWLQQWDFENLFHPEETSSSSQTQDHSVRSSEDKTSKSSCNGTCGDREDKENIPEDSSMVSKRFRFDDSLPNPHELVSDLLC

SMILES: COc1cc(Nc2nc(C)cc(-c3cnn4nc(OC)ccc34)n2)cc(C(F)(F)F)c1
- % of control [1]: 89%

SMILES: O=C(NOC[C@H](O)CO)c1ccc(F)c(F)c1Nc1ccc(I)cc1F
- % of control [2]: 91%

SMILES: COc1cc(N(C)c2ccnc3ccc(C(F)(F)F)cc23)cc(OC)c1OC
- % binding [3]: 62%

SMILES: CC[C@@H]1[C@H](F)C(=O)N[C@@H]1COc1nccc2cc(C(N)=O)c(OC)cc12 [ZIMLOVISERTIB]
- % of inhibition [4]: -35.3%

SMILES: CN1CCN(C(=O)c2ccc3cc2OCCOCCNc2ccn4ncc-3c4n2)CC1
- dTM [5]: 3.4 K

SMILES: C=CC(=O)Nc1cc(-n2c(=O)ccc3cnc4ccc(-c5ccc(NS(C)(=O)=O)cc5)cc4c32)ccc1C
- % of control ([6]; at 1 µM): 100%
- % of control ([6]; at 10 µM): 100%

Reference: ChEMBL document CHEMBL5465560, “Selectivity Literature for EUbOPEN Chemogenomic Library” (2024)
